US20190225650A1, “PEPTIDOMIMETIC MACROCYCLES AND USE THEREOF IN REGULATING HIF1ALPHA” (AILERON THERAPEUTICS, INC., priority 2013, published 2019)
Bridge positions count the residues as written; N and C are the ends. Square brackets hold non-standard residues; d marks the D form. Peptide text beside a SMILES is read from it. S5 = C=CCCC[C@](C)(N)C(=O)O; Nle = CCCC[C@H](N)C(=O)O

Test system: HRE-bla ME-180 cells
Assay: Reporter gene assay (HRE-bla ME-180 HIF reporter, GeneBLAzer)
Assay type: cell-based, human
Conditions: for EC50: 24 hour normoxia
Outline: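 A FRET β-lactamase readout of HIF transcription was used. After compound treatment in 0.3% DMSO/media under normoxic conditions, 20 μl of 6× LiveBLAzer-FRET B/G (CCF4-AM) substrate was added. Plates sat 3 hr at room temperature in the dark and were read at 409 Ex/460Em and 409Ex/530Em on a Synergy 2. Inhibition was compared against DMSO vehicle controls, with chetomin as positive control.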

Compound	EC50	18 h Avg % max inhibition at top conc (HIF Rptr-24 hrs normoxia) (μM)
CCCC[C@H](NC(=O)[C@H](CC(C)C)NC(=O)[C@@H](NC(=O)[C@H](CCC(=O)O)NC(=O)[C@H](CCC(=O)O)NC(=O)[C@H](CC(=O)O)NC(=O)[C@@H](NC(=O)[C@H](Cc1ccccc1)NC(C)=O)[C@@H](C)CC)C(C)C)C(=O)N[C@@]1(C)CCCC=CCCC[C@@](C)(C(=O)N[C@@H](CCCC)C(=O)N[C@@H](C)C(=O)N[C@@H](CC(C)C)C(=O)N[C@@H](CC(=O)O)C(=O)N[C@@H](CCCNC(=N)N)C(=O)N[C@H](C(N)=O)[C@@H](C)CC)NC(=O)[C@H]([C@@H](C)CC)NC(=O)[C@H](C(C)C)NC(=O)[C@H](C)NC1=O [SP-17] (Ac-FIDEEVL[Nle][S5]AVI[S5][Nle]ALDRI-NH2; staple 9-13)	5 to 15 µM	++++ (≥50: ++++)
CCCC[C@H](NC(=O)[C@H](CCC(=O)O)NC(=O)[C@@H](NC(=O)[C@H](CCC(=O)O)NC(=O)[C@H](CCC(=O)O)NC(=O)[C@H](CC(=O)O)NC(=O)[C@@H](NC(=O)[C@H](Cc1ccccc1)NC(C)=O)[C@@H](C)CC)C(C)C)C(=O)N[C@@]1(C)CCCC=CCCC[C@@](C)(C(=O)N[C@@H](CCCC)C(=O)N[C@@H](C)C(=O)N[C@@H](CC(C)C)C(=O)N[C@@H](CC(=O)O)C(=O)N[C@@H](CCCNC(=N)N)C(=O)N[C@H](C(N)=O)[C@@H](C)CC)NC(=O)[C@H]([C@@H](C)CC)NC(=O)[C@H](C(C)C)NC(=O)[C@H](CC(C)C)NC1=O [SP-33] (Ac-FIDEEVE[Nle][S5]LVI[S5][Nle]ALDRI-NH2; staple 9-13)	> 30 µM	+++ (≤25 but <50: +++)
CC[C@H](C)[C@H](NC(=O)[C@H](Cc1ccccc1)NC(C)=O)C(=O)N[C@@H](CC(=O)O)C(=O)N[C@@H](CCC(=O)O)C(=O)N[C@@H](CCC(=O)O)C(=O)N[C@H](C(=O)N[C@@H](CC(C)C)C(=O)N[C@@H](CCSC)C(=O)N[C@@]1(C)CCCC=CCCC[C@@](C)(C(=O)N[C@@H](CCSC)C(=O)N[C@@H](C)C(=O)N[C@@H](CC(C)C)C(=O)N[C@@H](CC(=O)O)C(=O)N[C@@H](CCCNC(=N)N)C(=O)N[C@H](C(=O)N[C@@H](CCCCN)C(=O)N[C@@H](CCC(=O)O)C(=O)N[C@@H](CC(C)C)C(=O)N2CCC[C@H]2C(=O)N[C@@H](CCC(=O)O)C(=O)N[C@@H](CC(C)C)C(=O)N[C@@H](Cc2c[nH]c3ccccc23)C(=O)N[C@@H](CC(C)C)C(N)=O)[C@@H](C)CC)NC(=O)[C@H]([C@@H](C)CC)NC(=O)[C@H](C(C)C)NC(=O)[C@H](CC(C)C)NC1=O)C(C)C [SP-3] (Ac-FIDEEVLM[S5]LVI[S5]MALDRIKELPELWL-NH2; staple 9-13)	> 30 µM	+++ (≤25 but <50: +++)
CCCC[C@H](NC(=O)[C@H](CC(C)C)NC(=O)[C@@H](NC(=O)[C@H](CCC(=O)O)NC(=O)[C@H](CCC(=O)O)NC(=O)[C@H](CC(=O)O)NC(=O)[C@@H](NC(=O)[C@H](Cc1ccccc1)NC(C)=O)[C@@H](C)CC)C(C)C)C(=O)N[C@@]1(C)CCCC=CCCC[C@@](C)(C(=O)N[C@@H](CCCC)C(=O)N[C@@H](C)C(=O)N[C@@H](CC(C)C)C(=O)N[C@@H](CC(=O)O)C(=O)N[C@@H](CCCNC(=N)N)C(=O)N[C@@H](CCC(=O)O)C(N)=O)NC(=O)[C@H]([C@@H](C)CC)NC(=O)[C@H](C(C)C)NC(=O)[C@H](CC(C)C)NC1=O [SP-42] (Ac-FIDEEVL[Nle][S5]LVI[S5][Nle]ALDRE-NH2; staple 9-13)	> 30 µM	++ (≤10 but <25: ++)
CCCC[C@H](NC(=O)[C@H](CC(C)C)NC(=O)[C@@H](NC(=O)[C@H](CCC(=O)O)NC(=O)[C@H](CCC(=O)O)NC(=O)[C@H](CC(=O)O)NC(=O)[C@@H](NC(=O)[C@H](Cc1ccccc1)NC(C)=O)[C@@H](C)CC)C(C)C)C(=O)N[C@@]1(C)CCCC=CCCC[C@@](C)(C(=O)N[C@@H](CCCC)C(=O)N[C@@H](CO)C(=O)N[C@@H](CC(C)C)C(=O)N[C@@H](CC(=O)O)C(=O)N[C@@H](CCCNC(=N)N)C(=O)N[C@H](C(N)=O)[C@@H](C)CC)NC(=O)[C@H]([C@@H](C)CC)NC(=O)[C@H](C(C)C)NC(=O)[C@H](CC(C)C)NC1=O [SP-55] (Ac-FIDEEVL[Nle][S5]LVI[S5][Nle]SLDRI-NH2; staple 9-13)	5 to 15 µM	++++ (≥50: ++++)
CCCC[C@H](NC(=O)[C@H](CC(C)C)NC(=O)[C@@H](NC(=O)[C@H](CCC(=O)O)NC(=O)[C@H](CCC(=O)O)NC(=O)[C@H](CC(=O)O)NC(=O)[C@@H](NC(=O)[C@H](Cc1ccccc1)NC(C)=O)[C@@H](C)CC)C(C)C)C(=O)N[C@@]1(C)CCCC=CCCC[C@@](C)(C(=O)N[C@@H](CCCC)C(=O)N[C@@H](C)C(=O)N[C@@H](CC(C)C)C(=O)N[C@@H](CC(=O)O)C(=O)N[C@@H](CCCNC(=N)N)C(=O)N[C@@H](CO)C(N)=O)NC(=O)[C@H]([C@@H](C)CC)NC(=O)[C@H](C(C)C)NC(=O)[C@H](CC(C)C)NC1=O [SP-59] (Ac-FIDEEVL[Nle][S5]LVI[S5][Nle]ALDRS-NH2; staple 9-13)	15 to 30 µM	+++ (≤25 but <50: +++)
CC[C@H](C)[C@H](NC(=O)[C@H](CCCNC(=N)N)NC(=O)[C@H](CC(=O)O)NC(=O)[C@H](CC(C)C)NC(=O)CNC(=O)[C@H](CCSC)NC(=O)[C@]1(C)CCCC=CCCC[C@](C)(NC(=O)[C@H](CCSC)NC(=O)[C@H](CC(C)C)NC(=O)[C@@H](NC(=O)[C@H](CCC(=O)O)NC(C)=O)C(C)C)C(=O)N[C@@H](CC(C)C)C(=O)N[C@@H](C(C)C)C(=O)N[C@@H]([C@@H](C)CC)C(=O)N1)C(=O)N[C@@H](CCCCN)C(=O)N[C@@H](CCC(=O)O)C(=O)N[C@@H](CC(C)C)C(=O)N1CCC[C@H]1C(=O)N[C@@H](CCC(=O)O)C(=O)N[C@@H](CC(C)C)C(=O)N[C@@H](Cc1c[nH]c2ccccc12)C(=O)N[C@@H](CC(C)C)C(N)=O [SP-89] (Ac-EVLM[S5]LVI[S5]MGLDRIKELPELWL-NH2; staple 5-9)	5 to 15 µM	+++ (≤25 but <50: +++)

Now from value to compound, other results behind:

EC50	Compound	18 h Avg % max inhibition at top conc (HIF Rptr-24 hrs normoxia) (μM)
5 to 15 µM	CCCC[C@H](NC(=O)[C@H](CC(C)C)NC(=O)[C@@H](NC(=O)[C@H](CCC(=O)O)NC(=O)[C@H](C)NC(=O)[C@H](CC(=O)O)NC(=O)[C@@H](NC(=O)[C@H](Cc1ccccc1)NC(C)=O)[C@@H](C)CC)C(C)C)C(=O)N[C@@]1(C)CCCC=CCCC[C@@](C)(C(=O)N[C@@H](CCCC)C(=O)N[C@@H](C)C(=O)N[C@@H](CC(C)C)C(=O)N[C@@H](CC(=O)O)C(=O)N[C@@H](CCCNC(=N)N)C(=O)N[C@H](C(N)=O)[C@@H](C)CC)NC(=O)[C@H]([C@@H](C)CC)NC(=O)[C@H](C(C)C)NC(=O)[C@H](CC(C)C)NC1=O [SP-12] (Ac-FIDAEVL[Nle][S5]LVI[S5][Nle]ALDRI-NH2; staple 9-13)	++++ (≥50: ++++)
≤ 5 µM	CCCC[C@H](NC(=O)[C@]1(C)CCCC=CCCC[C@](C)(NC(=O)[C@H](C)NC(=O)[C@H](CC(C)C)NC(=O)[C@@H](NC(=O)[C@H](CCC(=O)O)NC(=O)[C@H](CCC(=O)O)NC(=O)[C@H](CC(=O)O)NC(=O)[C@@H](NC(=O)[C@H](Cc2ccccc2)NC(C)=O)[C@@H](C)CC)C(C)C)C(=O)N[C@@H](CC(C)C)C(=O)N[C@@H](C(C)C)C(=O)N[C@@H]([C@@H](C)CC)C(=O)N1)C(=O)N[C@@H](C)C(=O)N[C@@H](CC(C)C)C(=O)N[C@@H](CC(=O)O)C(=O)N[C@@H](CCCNC(=N)N)C(=O)N[C@H](C(N)=O)[C@@H](C)CC [SP-16] (Ac-FIDEEVLA[S5]LVI[S5][Nle]ALDRI-NH2; staple 9-13)	++++ (≥50: ++++)
≤ 5 µM	CCCC[C@H](NC(=O)[C@H](C)NC(=O)[C@@H](NC(=O)[C@H](CCC(=O)O)NC(=O)[C@H](CCC(=O)O)NC(=O)[C@H](CC(=O)O)NC(=O)[C@@H](NC(=O)[C@H](Cc1ccccc1)NC(C)=O)[C@@H](C)CC)C(C)C)C(=O)N[C@@]1(C)CCCC=CCCC[C@@](C)(C(=O)N[C@@H](CCCC)C(=O)N[C@@H](C)C(=O)N[C@@H](CC(C)C)C(=O)N[C@@H](CC(=O)O)C(=O)N[C@@H](CCCNC(=N)N)C(=O)N[C@H](C(N)=O)[C@@H](C)CC)NC(=O)[C@H]([C@@H](C)CC)NC(=O)[C@H](C(C)C)NC(=O)[C@H](CC(C)C)NC1=O [SP-15] (Ac-FIDEEVA[Nle][S5]LVI[S5][Nle]ALDRI-NH2; staple 9-13)	++++ (≥50: ++++)
5 to 15 µM	CCCC[C@H](NC(=O)[C@H](CC(C)C)NC(=O)[C@@H](NC(=O)[C@H](C)NC(=O)[C@H](CCC(=O)O)NC(=O)[C@H](CC(=O)O)NC(=O)[C@@H](NC(=O)[C@H](Cc1ccccc1)NC(C)=O)[C@@H](C)CC)C(C)C)C(=O)N[C@@]1(C)CCCC=CCCC[C@@](C)(C(=O)N[C@@H](CCCC)C(=O)N[C@@H](C)C(=O)N[C@@H](CC(C)C)C(=O)N[C@@H](CC(=O)O)C(=O)N[C@@H](CCCNC(=N)N)C(=O)N[C@H](C(N)=O)[C@@H](C)CC)NC(=O)[C@H]([C@@H](C)CC)NC(=O)[C@H](C(C)C)NC(=O)[C@H](CC(C)C)NC1=O [SP-13] (Ac-FIDEAVL[Nle][S5]LVI[S5][Nle]ALDRI-NH2; staple 9-13)	++++ (≥50: ++++)
5 to 15 µM	CCCC[C@H](NC(=O)[C@H](CC(C)C)NC(=O)[C@@H](NC(=O)[C@H](CCC(=O)O)NC(=O)[C@H](CCC(=O)O)NC(=O)[C@H](CC(=O)O)NC(=O)[C@@H](NC(=O)[C@H](Cc1ccccc1)NC(C)=O)[C@@H](C)CC)C(C)C)C(=O)N[C@@]1(C)CCCC=CCCC[C@@](C)(C(=O)N[C@@H](C)C(=O)N[C@@H](C)C(=O)N[C@@H](CC(C)C)C(=O)N[C@@H](CC(=O)O)C(=O)N[C@@H](CCCNC(=N)N)C(=O)N[C@H](C(N)=O)[C@@H](C)CC)NC(=O)[C@H]([C@@H](C)CC)NC(=O)[C@H](C(C)C)NC(=O)[C@H](CC(C)C)NC1=O [SP-20] (Ac-FIDEEVL[Nle][S5]LVI[S5]AALDRI-NH2; staple 9-13)	++++ (≥50: ++++)
